# Measurements published in US6566081B1, “Methods of identifying a compound which modulates the non-transcriptional non-map-kinase induced effects of steroid hormones” (The Brigham and Women's Hospital, Inc., priority 1999, dated 2003).
# Legend:
# ERK 1 and 2 = assay: Immunoblotting of ERK 1/2 phosphorylation; type: cell-based, human; conditions: E2 10 nM, from 2 minutes
# Procedure: After the different treatments, serum-starved endothelial cells were rinsed once with ice-cold PBS before addition of the lysis buffer (100 mM Tris-HCl, pH 6.8, 4% SDS, 20% glycerol, 1 mM sodium orthovanadate, 1 mM NaF, and 1 mM phenylmethylsulfonylfluoride) to the dishes on an ice tray. The cell lysates were scraped, boiled, and centrifuged for 2 min at 13000 rpm. Total cell lysates (40 μg of protein) and low range molecular weight markers (BIO-RAD, Hercules, Calif.) were separated by SDS-polyacrylamide gel electrophoresis (12% running, 4% stacking), electrophoretically transferred to polyvinylidene fluoride membranes (Immobilon P, 0.45 μm pore size) and incubated overnight at 4° C. with blocking solution (5% skim milk in TBS—0.1% Tween 20). Affinity-purified rabbit antibodies (0.4 μg of IgG/ml) vs. Akt, (Ser 473) phospho-Akt or (Thr 308) phospho-Akt (New England BioLabs, Beverly, Mass.), Erk1/2, (Tyr 204) phospho-Erk-1/-2 (Calbiochem, San Diego, Calif.) were incubated with the membranes overnight at 4° C. in TBS—0.1% Tween 20 containing 5% BSA. The blots were washed three times with TBS—0.1% Tween 20 and then treated with donkey anti-rabbit antibody (1:4000 dilution) coupled to horseradish peroxidase. Immunodetection was accomplished using the enhanced chemoluminescence kit (ECL Kit, Amersham Corp.).
# ER-α / PI3-kinase p85α = biological target: T1, ER-α / PI3-kinase p85α (Homo sapiens, UniProt P03372); assay: ER-α immunoprecipitation: co-precipitated p85α and associated PI3-kinase activity; type: cell-based; conditions: ER-α immunoprecipitate
# T1 construct: endogenous in cells; host or cells: human endothelial cells (HSVEC), anti-ERα immunoprecipitate
# T1 sequence (P03372 1-595): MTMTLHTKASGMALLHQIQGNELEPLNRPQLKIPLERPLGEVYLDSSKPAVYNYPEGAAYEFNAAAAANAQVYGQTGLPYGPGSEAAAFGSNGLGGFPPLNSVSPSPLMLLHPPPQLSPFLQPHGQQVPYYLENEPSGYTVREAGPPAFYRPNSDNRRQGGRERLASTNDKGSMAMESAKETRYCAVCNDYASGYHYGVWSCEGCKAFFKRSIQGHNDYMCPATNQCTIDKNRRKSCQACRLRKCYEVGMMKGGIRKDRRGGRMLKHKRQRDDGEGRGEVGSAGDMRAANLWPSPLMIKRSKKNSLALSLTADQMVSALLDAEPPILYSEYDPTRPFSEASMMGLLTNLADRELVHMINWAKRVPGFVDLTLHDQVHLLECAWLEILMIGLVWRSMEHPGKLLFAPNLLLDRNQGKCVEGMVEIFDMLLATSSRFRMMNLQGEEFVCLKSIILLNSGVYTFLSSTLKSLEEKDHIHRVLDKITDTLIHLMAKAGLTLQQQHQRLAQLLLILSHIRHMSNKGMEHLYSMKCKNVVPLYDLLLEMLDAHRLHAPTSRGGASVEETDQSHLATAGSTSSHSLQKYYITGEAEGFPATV
Substance,phosphorylation of ERK 1 and 2 (ERK 1 and 2),stimulation of ER-α-associated PI3-kinase activity (ER-α / PI3-kinase p85α)
17β-estradiol [E2],increased phosphorylation,
insulin: known activator of the PI3-kinase/Akt pathway,,did not increase or augment
